The record followed here is ChEMBL document CHEMBL3507680, “University of Dundee, Gates Library screen for HepG2 cell viability”.

This series in a line: Human HepG2 cell viability assay in 384 well format. It counts as toxicity, cell-based. More on the design: dose 125 nL, time 70.5 hour; cytotoxicity at 70.5 h: concentration not given beside the values. To be noted: HepG2 cells, read-out: Inhibition.
In the case of `COc1ncccc1CN1CCN(c2noc(C(C)C)n2)CC1`, the cytotoxicity at 70.5 h amounted to 3.17%. The same measure for `CCc1c(C)sc2ncnc(N3CC[C@@H](N4CCC(O)CC4)[C@H](O)C3)c12`: -10.6%; for `CN(C)CCNCCC(c1ccccc1)C1CCOC(C)(C)C1` (stereo unspecified): -6.43%. Turning to `Cc1ccc2c(n1)N(CCN(C)C)CCN(C(=O)c1ccoc1)C2`, the cytotoxicity at 70.5 h is -11.8%.

`CCC[C@H]1CN(S(=O)(=O)c2ccc(Cl)cc2)C[C@@H]1NC(C)=O`: the cytotoxicity at 70.5 h was found to be 22.5%. On to `Cc1cccc(OC2CCN(Cc3ncc[nH]3)CC2)c1`, for which the cytotoxicity at 70.5 h amounted to 15.5%.

Regarding `CC(O)CN1CCN(C(=O)c2cc(Cl)cc3cccnc23)CC1` (stereo unspecified), the cytotoxicity at 70.5 h was -5.43%. The same measure for `O=C([C@@H]1CCO[C@@H]2CCN(Cc3ccc(F)cc3)C[C@H]21)N1CCCCO1`: -24.4%; for `CC(C#N)CN(C)Cc1ccc(Cl)c2cccnc12` (stereo unspecified): -3.13%; for `Cc1cccc(CN2C[C@@H]3CN(C(=O)C4CC=CC4)C[C@@H]3C2=O)n1`: -14.7%.

For `CN(Cc1ccccn1)C(CO)c1cccc(Br)c1` (stereo unspecified), the cytotoxicity at 70.5 h is -1.08%. With `O[C@@H]1C[C@@](CNCC2CC2)(COc2cccnc2)C[C@@H]1O`, the cytotoxicity at 70.5 h was -7.73%. Regarding `COc1nc2ccn(CCc3cnccn3)c(=O)c2cc1C#N`, the cytotoxicity at 70.5 h was 40.2%.

As for `CC(=O)NCCCSC1CCCN(c2ccccc2F)C1=O` (stereo unspecified), the cytotoxicity at 70.5 h was -6.35%. Under `CCN1CCc2cc(-c3cncn3CCNC3CCS(=O)(=O)C3)ccc21` (stereo unspecified) stands -5.23%; under `COc1ccc(-n2nc(C)c(C(C)=O)c2C)cc1C(N)=O`, 2.1%. For the compound `O=C(NCc1csc(Br)c1)Nc1cn[nH]c1`, the cytotoxicity at 70.5 h was 39.3%. Consider `COC(=O)C1=C(C)N=C2SCC(=O)N2C1c1cnn(C)c1C` (stereo unspecified), for which the cytotoxicity at 70.5 h is -1.28%. Take `c1cc(N2CCOCC(Cc3ccc4[nH]ccc4c3)C2)ncn1` (stereo unspecified): the cytotoxicity at 70.5 h is -8.81%.

Regarding `CC(=O)N1CCN(C[C@H]2CC[C@@H](Cc3ccc4ncccc4c3)O2)CC1`, the cytotoxicity at 70.5 h is -10.6%. Turning to `O=C(CSc1ccc(F)c(F)c1)NS(=O)(=O)c1ccc2c(c1)OCCO2`, the cytotoxicity at 70.5 h is -14%. As for `CCS(=O)(=O)CCN1CCC(N(C)Cc2ncc(C)o2)C1` (stereo unspecified), the cytotoxicity at 70.5 h stood at 0.306%.

As for `Cc1cnn(C2CN(CC(=O)Nc3cccnc3)C2)c1`, the cytotoxicity at 70.5 h is -9.68%. As to `CCn1c(C2CCN(C(=O)c3ccc4cc[nH]c4c3)CC2)n[nH]c1=O`, the cytotoxicity at 70.5 h was 9.25%. Under `CCC(Nc1nc(CCN)nc2ccccc12)c1cc(C)ccn1` (stereo unspecified) stands -5.71%; under `O=C1N(Cc2cccnc2)C[C@H]2CN(S(=O)(=O)c3ccccc3)CCN12`, 1.73%; under `O=C1CCCN1CCCN1CCCC1Cn1cccn1` (stereo unspecified), 8.99%. As to `Cc1cnccc1CCNC(=O)Nc1cnc(N(C)C)nc1`, the cytotoxicity at 70.5 h was 25.9%. Under `Cc1ccc(CS(=O)(=O)NCc2ccco2)cc1` stands -4.19%; under `COc1c(CNCc2ccc(S(C)(=O)=O)cc2)c(C)nn1C`, 0.0381%; under `CN(C)C(=O)CS(=O)(=O)Cc1cc(Cl)c2c(c1)OCO2`, -2.34%. Consider `CCn1nc(C)cc1NC(=O)CCn1nc(C)c(Br)c1C`, for which the cytotoxicity at 70.5 h worked out at 10.2%. For `c1csc(CN2C[C@@H](n3cccn3)[C@H]3OCCC[C@H]32)c1`, the cytotoxicity at 70.5 h is -3.02%.

As to `Cc1cc(NCc2cc3n(n2)CCCN(S(C)(=O)=O)C3)ncn1`, the cytotoxicity at 70.5 h was -5.23%.

Turning to `Cc1nn(C)c(N2CCOCC2)c1CNC(C(N)=O)c1ccccc1` (stereo unspecified), the cytotoxicity at 70.5 h was determined as 4.26%.

Turning to `CN(C)C(=O)CCNC(=O)Nc1cccc(Cl)c1-n1cccn1`, the cytotoxicity at 70.5 h is 1.32%. For the compound `Cn1cccc1C(=O)N1CCC2(CC1)c1nc[nH]c1CCN2S(C)(=O)=O`, the cytotoxicity at 70.5 h was -3.6%.

Take `CS(=O)(=O)N1CCN(c2ccnc(N3CCCC3)n2)CC1`: the cytotoxicity at 70.5 h is -4.19%.

For `COCCN1C(=O)CCC12CCN(c1ncc(F)cn1)CC2`, the cytotoxicity at 70.5 h was -2.74%. Under `CC(C)CN1CCN(C(=O)NCc2cccnc2-n2cccn2)CC1` stands 3.85%; under `NCCN1CCC(c2nnc(Cn3ccnc3)n2C2CC2)CC1`, -3.91%. With `Cc1ccc2c(c1)OC(C)CN2C(=O)c1c[nH]c(C)cc1=O` (stereo unspecified), the cytotoxicity at 70.5 h stood at 2.52%. With `Cc1cc(C(=O)NC2CCN(C(=O)Nc3cccnc3)CC2)c(C)o1`, the cytotoxicity at 70.5 h was -9.09%.

Turning to `Brc1cccnc1OC1CCNCC1`, the cytotoxicity at 70.5 h was 23.3%.

`Cc1cc(C(=O)N2CCC(c3nccn3Cc3ccccn3)CC2)no1`: the cytotoxicity at 70.5 h was -6.61%.

On to `Cc1ccccc1OCCN(C)C(=O)NC(C)c1nncn1C` (stereo unspecified), for which the cytotoxicity at 70.5 h was -6.52%. For `CCCNC(=O)CCC(=O)N1CCC(c2noc3cc(F)ccc23)CC1`, the cytotoxicity at 70.5 h is -8.21%. With `C1=C(CNC2CCc3ncnn3C2)COc2ccccc21` (stereo unspecified), the cytotoxicity at 70.5 h is -9.66%. Under `O=S1(=O)COCCN1CCOc1ccc(F)cc1` stands -5.2%; under `CCc1ccc(C2COCCN2C(=O)Nc2cc(C)on2)o1` (stereo unspecified), -3.5%; under `Cc1cc(C(F)(F)F)nn1C(C)C(=O)NN1CCN(C)CC1` (stereo unspecified), 18.4%. On to `Cc1cc(CS(=O)(=O)NC2CCCCC2)on1`, for which the cytotoxicity at 70.5 h is -15.3%. Regarding `Cc1nn(C)c(C)c1C1CCCN1C(=O)c1ccc(NC2CC2)nc1` (stereo unspecified), the cytotoxicity at 70.5 h was -17.5%. Under `O=C1NC2(CCN(Cc3ccsc3)CC2)CC1c1ccncc1` (stereo unspecified) stands -9.73%; under `Cc1cccnc1CN1CCN(Cc2ccc(-c3cc[nH]n3)o2)CC1`, -7.65%; under `CC1CN(Cc2ccccn2)CCN1c1ccc2nncn2n1` (stereo unspecified), -0.942%.

Regarding `CCC1CCC(CNC(=O)c2c[nH]c(=O)c(Cl)c2)CC1` (stereo unspecified), the cytotoxicity at 70.5 h is -9.94%. Under `Cc1cc2c(=O)n3c(nc2s1)CCN(Cc1cnn(C)c1C)CC3` stands -11.8%; under `O=C(O)C(c1ccc(O)cc1)N1CCC(N2CCSCC2)CC1` (stereo unspecified), -0.773%; under `O=C(NCc1ccc2c(c1)OCO2)c1ccc(N2CCCCCC2)nc1`, 2.76%. Turning to `Cc1csc(C2CCCCN2C(=O)CCCn2cncn2)n1` (stereo unspecified), the cytotoxicity at 70.5 h was -9.21%. In the case of `Cc1ccc(CC(=O)N(CC2CN(C)CCO2)c2nccs2)cn1` (stereo unspecified), the cytotoxicity at 70.5 h stood at 11.5%. Regarding `O=C(CN(C1=NCCCCC1)c1ccc(Cl)cc1)c1ccccc1`, the cytotoxicity at 70.5 h is 10.9%. Regarding `CC(C)N1CCO[C@@H]2CN(C(=O)Cc3cccs3)CC[C@@H]2C1`, the cytotoxicity at 70.5 h was -6.99%. In the case of `COc1cccc([C@H]2CN(C(=O)c3nnc4n3CCCC4)C[C@@H]2N)c1`, the cytotoxicity at 70.5 h is -3.91%. For the compound `O=C(COCc1ccccc1)NCc1ccc(O)c(F)c1`, the cytotoxicity at 70.5 h is -0.734%. Regarding `CS(=O)(=O)N1CCC(Nc2ccc(C#N)c(C(F)(F)F)c2)CC1`, the cytotoxicity at 70.5 h stood at 8.33%. For the compound `CCCN1CCC(NC(=O)Nc2ccc(OC)c(OC)c2)CC1`, the cytotoxicity at 70.5 h is -1.26%. For the compound `O=C1NCCCCC1NC(=O)N1CCCc2cc(F)ccc21` (stereo unspecified), the cytotoxicity at 70.5 h was -4.74%. For `CC(C)CN1C(=O)C2(CCN(Cc3nccs3)C2)c2ccccc21` (stereo unspecified), the cytotoxicity at 70.5 h is -1.93%.

In the case of `CCS(=O)(=O)NCCNC(=O)c1cc(Cl)c2c(c1)OCCCO2`, the cytotoxicity at 70.5 h is -9.4%.
